{
  "source": "patent US11319299B2",
  "about": "“Substituted carboxamides as inhibitors of WDR5 protein-protein binding” (PROPELLON THERAPEUTICS INC., priority 2016, dated 2022)",
  "data": [
    {"biological_target": "WDR5 (Homo sapiens (Human), UniProt P61964)", "experiment": "Surface Plasmon Resonance (SPR) assay, KD and residence time", "assay_type": "binding", "settings": "surface plasmon resonance (SPR) assay; read-out: WDR5 binding affinity (KD)", "units": {"Kd": "nM"}, "values": [
      {"smiles": "C[C@@H]1CN(c2cc(F)c(C3=CCN(CCC(F)(F)F)CC3)cc2NC(=O)c2c[nH]c(=O)cc2C(F)(F)F)C[C@H](C)N1C", "note": "[Example 152, N-[4-fluoro-2-[(3R,5S)-3,4,5-trimethylpiperazin-1-yl]-5-[1-(3,3,3-trifluoropropyl)-3,6-dihydro-2H-pyridin-4-yl]phenyl]-6-oxo-4-(trifluoromethyl)-1H-pyridine-3-carboxamide]", "Kd": 6.33},
      {"smiles": "C[C@@H]1CN(c2cc(F)c(C3=CCN(Cc4ccc(F)cc4)CC3)cc2NC(=O)c2c[nH]c(=O)cc2C(F)(F)F)C[C@H](C)N1C", "note": "[Example 153, N-[4-fluoro-5-[1-[(4-fluorophenyl)methyl]-3,6-dihydro-2H-pyridin-4-yl]-2-[(3R,5S)-3,4,5-trimethylpiperazin-1-yl]phenyl]-6-oxo-4-(trifluoromethyl)-1H-pyridine-3-carboxamide]", "Kd": 1.08},
      {"smiles": "C[C@@H]1CN(c2cc(F)c(C3=CCN(Cc4cccnc4)CC3)cc2NC(=O)c2c[nH]c(=O)cc2C(F)(F)F)C[C@H](C)N1C", "note": "[Example 154, N-[4-fluoro-5-[1-(pyridin-3-ylmethyl)-3,6-dihydro-2H-pyridin-4-yl]-2-[(3R,5S)-3,4,5-trimethylpiperazin-1-yl]phenyl]-6-oxo-4-(trifluoromethyl)-1H-pyridine-3-carboxamide]", "Kd": 5.46},
      {"smiles": "C[C@@H]1CN(c2cc(F)c(C3=CCN(Cc4ccsc4)CC3)cc2NC(=O)c2c[nH]c(=O)cc2C(F)(F)F)C[C@H](C)N1C", "note": "[Example 155, N-[4-fluoro-2-[(3R,5S)-3,4,5-trimethylpiperazin-1-yl]-5-[1-(thiophen-3-ylmethyl)-3,6-dihydro-2H-pyridin-4-yl]phenyl]-6-oxo-4-(trifluoromethyl)-1H-pyridine-3-carboxamide]", "Kd": 4.76},
      {"smiles": "C[C@@H]1CN(c2cc(F)c(-c3cncc(OCC4CC4)c3)cc2NC(=O)c2c[nH]c(=O)cc2C(F)(F)F)C[C@H](C)N1C", "note": "[Example 156, N-[5-[5-(cyclopropylmethoxy)pyridin-3-yl]-4-fluoro-2-[(3R,5S)-3,4,5-trimethylpiperazin-1-yl]phenyl]-6-oxo-4-(trifluoromethyl)-1H-pyridine-3-carboxamide]", "Kd": 8.61},
      {"smiles": "C[C@@H]1CN(c2cc(F)c(-c3ccc(O)nc3)cc2NC(=O)c2c[nH]c(=O)cc2C(F)(F)F)C[C@H](C)N1C", "note": "[Example 157, N-[4-fluoro-5-(6-hydroxypyridin-3-yl)-2-[(3R,5S)-3,4,5-trimethylpiperazin-1-yl]phenyl]-6-oxo-4-(trifluoromethyl)-1H-pyridine-3-carboxamide]", "Kd": 2.16},
      {"smiles": "C[C@@H]1CN(c2cc(F)c(-c3cnc(N4CCNCC4)nc3)cc2NC(=O)c2c[nH]c(=O)cc2C(F)(F)F)C[C@H](C)N1C", "note": "[Example 158, N-[4-fluoro-5-(2-piperazin-1-ylpyrimidin-5-yl)-2-[(3R,5S)-3,4,5-trimethylpiperazin-1-yl]phenyl]-6-oxo-4-(trifluoromethyl)-1H-pyridine-3-carboxamide]", "Kd": 0.345},
      {"smiles": "C[C@@H]1CN(c2cc(F)c(-c3cnc(N4CCOCC4)nc3)cc2NC(=O)c2cc(F)cc(Cl)c2)C[C@H](C)N1C", "note": "[Example 159, 3-chloro-5-fluoro-N-[4-fluoro-5-(2-morpholin-4-ylpyrimidin-5-yl)-2-[(3R,5S)-3,4,5-trimethylpiperazin-1-yl]phenyl]benzamide]", "Kd": 29},
      {"smiles": "C[C@@H]1CN(c2cc(F)c(-c3cnc(N4CCOCC4)nc3)cc2NC(=O)c2cc(F)cc(F)c2)C[C@H](C)N1C", "note": "[Example 160, 3,5-difluoro-N-[4-fluoro-5-(2-morpholin-4-ylpyrimidin-5-yl)-2-[(3R,5S)-3,4,5-trimethylpiperazin-1-yl]phenyl]benzamide]", "Kd": 26.8},
      {"smiles": "C[C@@H]1CN(c2cc(F)c(C3=CCN(Cc4nccs4)CC3)cc2NC(=O)c2c[nH]c(=O)cc2C(F)(F)F)C[C@H](C)N1C", "note": "[Example 162, N-[4-fluoro-2-[(3R,5S)-3,4,5-trimethylpiperazin-1-yl]-5-[1-(1,3-thiazol-2-ylmethyl)-3,6-dihydro-2H-pyridin-4-yl]phenyl]-6-oxo-4-(trifluoromethyl)-1H-pyridine-3-carboxamide]", "Kd": 2.83},
      {"smiles": "Cc1ncc(CN2CC=C(c3cc(NC(=O)c4c[nH]c(=O)cc4C(F)(F)F)c(N4C[C@@H](C)N(C)[C@@H](C)C4)cc3F)CC2)o1", "note": "[Example 163, N-[4-fluoro-5-[1-[(2-methyl-1,3-oxazol-5-yl)methyl]-3,6-dihydro-2H-pyridin-4-yl]-2-[(3R,5S)-3,4,5-trimethylpiperazin-1-yl]phenyl]-6-oxo-4-(trifluoromethyl)-1H-pyridine-3-carboxamide]", "Kd": 4.05},
      {"smiles": "C[C@@H]1CN(c2cc(F)c(C3=CCN(Cc4cnn(C)c4)CC3)cc2NC(=O)c2c[nH]c(=O)cc2C(F)(F)F)C[C@H](C)N1C", "note": "[Example 164, N-[4-fluoro-5-[1-[(I-methylpyrazol-4-yl)methyl]-3,6-dihydro-2H-pyridin-4-yl]-2-[(3R,5S)-3,4,5-trimethylpiperazin-1-yl]phenyl]-6-oxo-4-(trifluoromethyl)-1H-pyridine-3-carboxamide]", "Kd": 1.43},
      {"smiles": "C[C@@H]1CN(c2cc(F)c(C3=CCN(Cc4ccc(N5CCOCC5)cc4)CC3)cc2NC(=O)c2c[nH]c(=O)cc2C(F)(F)F)C[C@H](C)N1C", "note": "[Example 165, N-[4-fluoro-5-[1-[(4-morpholin-4-ylphenyl)methyl]-3,6-dihydro-2H-pyridin-4-yl]-2-[(3R,5S)-3,4,5-trimethylpiperazin-1-yl]phenyl]-6-oxo-4-(trifluoromethyl)-1H-pyridine-3-carboxamide]", "Kd": 6.28},
      {"smiles": "C[C@@H]1CN(c2cc(F)c(C3=CCN(Cc4ccc(N5CCN(C)CC5)cc4)CC3)cc2NC(=O)c2c[nH]c(=O)cc2C(F)(F)F)C[C@H](C)N1C", "note": "[Example 166, N-[4-fluoro-5-[1-[[4-(4-methylpiperazin-1-yl)phenyl]methyl]-3,6-dihydro-2H-pyridin-4-yl]-2-[(3R,5S)-3,4,5-trimethylpiperazin-1-yl]phenyl]-6-oxo-4-(trifluoromethyl)-1H-pyridine-3-carboxamide]", "Kd": 0.23},
      {"smiles": "C[C@@H]1CN(c2cc(F)c(C3=CCN(CC4CCOCC4)CC3)cc2NC(=O)c2c[nH]c(=O)cc2C(F)(F)F)C[C@H](C)N1C", "note": "[Example 167, N-[4-fluoro-5-[1-(oxan-4-ylmethyl)-3,6-dihydro-2H-pyridin-4-yl]-2-[(3R,5S)-3,4,5-trimethylpiperazin-1-yl]phenyl]-6-oxo-4-(trifluoromethyl)-1H-pyridine-3-carboxamide]", "Kd": 5.76},
      {"smiles": "CN(C)[C@@H]1CCN(c2cc(F)c(-c3cnc(N4CCOCC4)nc3)cc2NC(=O)c2cc(Cl)cc(Cl)c2)C1", "note": "[Example 168, 3,5-dichloro-N-[4-fluoro-5-(2-morpholin-4-ylpyrimidin-5-yl)-2-[(3R)-3-(dimethylamino)pyrrolidin-1-yl]phenyl]benzamide]", "Kd": 30},
      {"smiles": "CN(C)[C@@H]1CCN(c2cc(F)c(-c3ccc(N4CCOCC4)cc3)cc2NC(=O)c2cc(Cl)cc(Cl)c2)C1", "note": "[Example 169, 3,5-dichloro-N-[4-fluoro-5-(4-morpholin-4-ylphenyl)-2-[(3R)-3-(dimethylamino)pyrrolidin-1-yl]phenyl]benzamide]", "Kd": 122},
      {"smiles": "C[C@@H]1CN(c2cc(F)c(-c3cnc(N4CCOCC4)c(C#N)c3)cc2NC(=O)c2c[nH]c(=O)cc2C(F)(F)F)C[C@H](C)N1C", "note": "[Example 170, N-[5-(5-cyano-6-morpholin-4-ylpyridin-3-yl)-4-fluoro-2-[(3R,5S)-3,4,5-trimethylpiperazin-1-yl]phenyl]-6-oxo-4-(trifluoromethyl)-1H-pyridine-3-carboxamide]", "Kd": 1.17},
      {"smiles": "Cc1cc(-c2cc(NC(=O)c3c[nH]c(=O)cc3C(F)(F)F)c(N3C[C@@H](C)N(C)[C@@H](C)C3)cc2F)cnc1N1CCOCC1", "note": "[Example 171, N-[4-fluoro-5-(5-methyl-6-morpholin-4-ylpyridin-3-yl)-2-[(3R,5S)-3,4,5-trimethylpiperazin-1-yl]phenyl]-6-oxo-4-(trifluoromethyl)-1H-pyridine-3-carboxamide]", "Kd": 2.5},
      {"smiles": "C[C@@H]1CN(c2cc(F)c(-c3cnc4c(c3)CCN4)cc2NC(=O)c2c[nH]c(=O)cc2C(F)(F)F)C[C@H](C)N1C", "note": "[Example 172, N-[5-(2,3-dihydro-1H-pyrrolo[2,3-b]pyridin-5-yl)-4-fluoro-2-[(3R,5S)-3,4,5-trimethylpiperazin-1-yl]phenyl]-6-oxo-4-(trifluoromethyl)-1H-pyridine-3-carboxamide]", "Kd": 10.3},
      {"smiles": "C[C@@H]1CN(c2cc(F)c(-c3cncc(C(F)(F)F)c3)cc2NC(=O)c2c[nH]c(=O)cc2C(F)(F)F)C[C@H](C)N1C", "note": "[Example 173, N-[4-fluoro-2-[(3R,5S)-3,4,5-trimethylpiperazin-1-yl]-5-[5-(trifluoromethyl)pyridin-3-yl]phenyl]-6-oxo-4-(trifluoromethyl)-1H-pyridine-3-carboxamide]", "Kd": 2.78},
      {"smiles": "C[C@@H]1CN(c2cc(F)c(-c3cncc(C(=O)NC(C)(C)C)c3)cc2NC(=O)c2c[nH]c(=O)cc2C(F)(F)F)C[C@H](C)N1C", "note": "[Example 174, N-[5-[5-(tert-butylcarbamoyl)pyridin-3-yl]-4-fluoro-2-[(3R,5S)-3,4,5-trimethylpiperazin-1-yl]phenyl]-6-oxo-4-(trifluoromethyl)-1H-pyridine-3-carboxamide]", "Kd": 1.53},
      {"smiles": "C[C@@H]1CN(c2cc(F)c(-c3cnc(N4CCOCC4)nc3)cc2NC(=O)c2cc(Cl)cc(C(F)(F)F)c2)C[C@H](C)N1C", "note": "[Example 175, 3-chloro-N-[4-fluoro-5-(2-morpholin-4-ylpyrimidin-5-yl)-2-[(3R,5S)-3,4,5-trimethylpiperazin-1-yl]phenyl]-5-(trifluoromethyl)benzamide]", "Kd": 20.6},
      {"smiles": "C[C@@H]1CN(c2cc(F)c(-c3cnc(N4CCOCC4)nc3)cc2NC(=O)c2cc(F)cc(C(F)(F)F)c2)C[C@H](C)N1C", "note": "[Example 176, 3-fluoro-N-[4-fluoro-5-(2-morpholin-4-ylpyrimidin-5-yl)-2-[(3R,5S)-3,4,5-trimethylpiperazin-1-yl]phenyl]-5-(trifluoromethyl)benzamide]", "Kd": 50.9},
      {"smiles": "CN(C)[C@@H]1CCN(c2cc(F)c(-c3ccc(N4CCOCC4)cc3)cc2NC(=O)c2cn[nH]c2)C1", "note": "[Example 177, N-[4-fluoro-5-(4-morpholin-4-ylphenyl)-2-[(3R)-3-(dimethylamino)pyrrolidin-1-yl]phenyl]-1H-pyrazole-4-carboxamide]", "Kd": "> 200"}
    ]}
  ]
}
